What was measured:
[1] = target: 5-hydroxytryptamine receptor 2A (Rattus norvegicus, UniProt P14842)
[2] = target: 5-hydroxytryptamine receptor 1B (Rattus norvegicus, UniProt P28564)
[3] = target: T1, 5-hydroxytryptamine receptor 2C (Sus scrofa, UniProt G7ZKZ7)
T1 sequence (G7ZKZ7 whole entry): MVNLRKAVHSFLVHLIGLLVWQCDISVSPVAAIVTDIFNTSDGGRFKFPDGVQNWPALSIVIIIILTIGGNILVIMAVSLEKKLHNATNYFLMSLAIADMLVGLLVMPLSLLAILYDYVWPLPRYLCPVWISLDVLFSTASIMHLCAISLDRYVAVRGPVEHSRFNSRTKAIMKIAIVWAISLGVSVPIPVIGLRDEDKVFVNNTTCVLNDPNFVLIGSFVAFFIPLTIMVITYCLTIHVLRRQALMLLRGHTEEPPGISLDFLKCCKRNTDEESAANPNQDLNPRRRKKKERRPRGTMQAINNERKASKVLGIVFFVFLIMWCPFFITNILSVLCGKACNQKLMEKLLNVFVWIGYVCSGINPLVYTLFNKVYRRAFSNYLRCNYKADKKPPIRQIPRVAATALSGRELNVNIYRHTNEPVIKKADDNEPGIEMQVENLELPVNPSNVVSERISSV

[4] = target: T2, 5-hydroxytryptamine receptor 3A (Rattus norvegicus, UniProt P35563)
T2 sequence (P35563 whole entry): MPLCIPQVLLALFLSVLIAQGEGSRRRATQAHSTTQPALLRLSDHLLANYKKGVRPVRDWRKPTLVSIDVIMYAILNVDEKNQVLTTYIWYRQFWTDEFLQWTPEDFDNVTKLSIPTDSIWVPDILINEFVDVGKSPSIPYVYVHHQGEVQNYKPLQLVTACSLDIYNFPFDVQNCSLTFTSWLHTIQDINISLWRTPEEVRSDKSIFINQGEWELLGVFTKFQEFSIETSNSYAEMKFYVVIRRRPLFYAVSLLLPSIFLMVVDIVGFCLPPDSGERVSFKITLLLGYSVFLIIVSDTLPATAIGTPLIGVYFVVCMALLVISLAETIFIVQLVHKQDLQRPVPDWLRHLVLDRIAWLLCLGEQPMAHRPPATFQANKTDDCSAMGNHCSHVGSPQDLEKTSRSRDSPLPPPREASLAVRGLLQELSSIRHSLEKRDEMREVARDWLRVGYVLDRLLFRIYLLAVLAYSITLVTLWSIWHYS

[5] = target: T3, 5-hydroxytryptamine receptor 1A (Rattus norvegicus, UniProt P19327)
T3 sequence (P19327 whole entry): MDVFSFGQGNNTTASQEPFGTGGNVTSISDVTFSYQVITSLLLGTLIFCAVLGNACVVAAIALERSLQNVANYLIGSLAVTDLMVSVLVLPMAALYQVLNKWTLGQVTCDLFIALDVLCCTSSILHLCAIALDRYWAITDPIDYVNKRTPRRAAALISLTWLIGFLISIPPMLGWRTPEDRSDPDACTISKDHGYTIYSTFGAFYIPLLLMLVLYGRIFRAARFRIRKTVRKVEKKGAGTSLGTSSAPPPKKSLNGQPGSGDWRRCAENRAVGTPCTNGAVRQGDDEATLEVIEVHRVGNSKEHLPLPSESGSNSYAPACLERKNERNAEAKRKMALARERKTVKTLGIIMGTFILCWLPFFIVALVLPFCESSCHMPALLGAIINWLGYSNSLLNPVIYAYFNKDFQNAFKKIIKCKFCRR

Chain of 5-hydroxytryptamine receptor 2A (P14842 whole entry): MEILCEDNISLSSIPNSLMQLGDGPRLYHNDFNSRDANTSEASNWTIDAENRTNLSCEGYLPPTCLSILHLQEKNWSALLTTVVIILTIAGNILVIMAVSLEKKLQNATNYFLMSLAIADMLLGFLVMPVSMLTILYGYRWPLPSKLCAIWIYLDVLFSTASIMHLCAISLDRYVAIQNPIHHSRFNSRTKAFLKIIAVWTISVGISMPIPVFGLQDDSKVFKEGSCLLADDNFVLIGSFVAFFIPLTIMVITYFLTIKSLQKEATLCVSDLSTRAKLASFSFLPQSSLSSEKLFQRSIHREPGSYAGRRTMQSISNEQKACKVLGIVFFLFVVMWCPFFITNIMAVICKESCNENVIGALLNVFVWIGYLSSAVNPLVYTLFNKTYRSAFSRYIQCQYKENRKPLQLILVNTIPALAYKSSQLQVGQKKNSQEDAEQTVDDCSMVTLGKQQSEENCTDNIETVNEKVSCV
Chain of 5-hydroxytryptamine receptor 1B (P28564 whole entry): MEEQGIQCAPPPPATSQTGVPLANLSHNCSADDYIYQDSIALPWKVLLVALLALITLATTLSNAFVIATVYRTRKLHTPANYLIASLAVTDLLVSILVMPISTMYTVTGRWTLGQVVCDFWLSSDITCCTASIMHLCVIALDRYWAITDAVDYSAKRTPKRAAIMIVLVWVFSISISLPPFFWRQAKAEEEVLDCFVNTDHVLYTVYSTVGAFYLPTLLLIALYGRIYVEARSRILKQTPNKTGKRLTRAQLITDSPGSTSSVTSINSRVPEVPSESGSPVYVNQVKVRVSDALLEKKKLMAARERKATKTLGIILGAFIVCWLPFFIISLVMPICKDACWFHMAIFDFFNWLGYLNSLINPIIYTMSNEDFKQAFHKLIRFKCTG

Row | SMILES | Ki [1] [nM] | Ki [2] [nM] | Ki [3] [nM] | Ki [4] [nM] | Ki [5] [nM]
1 | COc1ccccc1N1CCN(CCN2C(=O)CC3(CCCC3)CC2=O)CC1 | 1740 | > 10000 | 234 | 1000 | –
2 | CC(C)(C)NCC(O)COc1cccc2c1SCCC2 (single isomer, unassigned; (-)) [TERTATOLOL(-)] | 1450 | 182 | 363 | 1000 | 8.31
3 | c1cc2c(c(N3CCNCC3)c1)OCCO2 [1-(2,3-Dihydro-benzo[1,4]dioxin-5-yl)-piperazine] | 1380 | 53.7 | 170 | 1000 | 9.33
4 | COc1ccccc1N1CCN(CCCCN2C(=O)c3ccccc3C2=O)CC1 [2-{4-[4-(2-Methoxy-phenyl)-piperazin-1-yl]-butyl}-isoindole-1,3-dione] | 646 | 1070 | 776 | – | –
5 | O=C(CCCN1CCC2(CC1)C(=O)NCN2c1ccccc1)c1ccc(F)cc1 [8-[4-(4-fluorophenyl)-4-oxidanylidene-butyl]-1-phenyl-1,3,8-triazaspiro[4.5]decan-4-one] | – | > 10000 | 977 | – | 115
6 | C=CCc1ccccc1OC[C@@H](O)CNC(C)C [ALPRENOLOL,(-)] | 5010 | 100 | 4470 | – | –
7 | O=C1CC2(CCCC2)CC(=O)N1CCNCC1COc2ccccc2O1 (configuration not stated) [CAS_124756-23-6] | 1620 | 4570 | 427 | – | 1.25
8 | COC(=O)c1cc2c(N3CCN(CCCCN4C(=O)c5ccccc5S4(=O)=O)CC3)cccc2[nH]1 [CAS_141533-35-9] | – | – | – | – | 1.58
9 | c1ccc2c(c1)CCC2CCN1CCN(c2cccc3c2OCCO3)CC1 (configuration not stated) [CAS_182596] | 191 | 417 | 115 | 53.7 | 1.51
10 | c1ccc2c(c1)CC(N1CCN(c3cccc4c3OCCO4)CC1)C2 [NSC_132787] | 214 | 1740 | 537 | 1000 | –
11 | c1ccc2c(c1)CC2CCN1CCN(c2cccc3c2OCCO3)CC1 (configuration not stated) [NSC_182595] | 141 | 603 | 151 | 372 | 0.61
12 | COc1ccccc1N1CCN(C[C@@H](C(=O)NC(C)(C)C)c2ccccc2)CC1 [WAY 100135] | 3470 | > 10000 | 3470 | 1000 | 32.4
